Experimental findings from patent US8394434B2, “SCF extract containing cardiac glycoside” (Phoenix Biotechnology, Inc., priority 2005, dated 2013) are described below.

Experiment [1] concerns Human pancreatic cancer PANC-1 cells. Kind of experiment: Cytotoxicity comparison, crystal violet staining (Example 10). Format: cell-based. Conditions: presented as μM oleandrin concentration in the extract, 72 hr incubation. Here is the method: (§1) The extracts also differ in their relative performance as determined by efficacy against several tumor cell lines (Example 10). Oleandrin-containing samples were prepared to contain the same amount of oleandrin although the concentration of oleandrin in each sample varied due to the differences in the concentration of in the extracts. The data obtained are summarized in the table below and in FIGS. 4 and 5.
(§2) The cytotoxic potential of both extracts are compared directly with that of oleandrin. The samples contained the same amounts of oleandrin even though their concentration of oleandrin differed due to the concentration of oleandrin present in the extracts.
(§3) BRO (human melanoma) and Panc-1 (human pancreatic cancer) cells (8×10^3/well) were plated in a 96 well plate and allowed to attach overnight. Drug or extracts were then added to the cells. After 72 hr of incubation, relative cell proliferation (relative to control untreated cells) was assessed by crystal violet staining method.

In a further experiment the test system is Human melanoma BRO cells. Described as above. Format: cell-based. Conditions: presented as μM oleandrin concentration in the extract, 72 hr incubation. How it is done: as §1, §2, §3
The test system of another experiment is PANC-1 cells. Kind of experiment: Cell cycle analysis by flow cytometry. Format: cell-based, human. Conditions: 25 nM oleandrin or extract equivalent to 25 nM oleandrin, 24 hrs. How it is done: The effect of oleandrin, the hot-water and SCF extract upon cell cycle changes of PANC-1 cells treated therewith was evaluated over a 24-hour period. Panc-1 cells were treated with 25 nM of oleandrin alone or the amount of hot water extract or supercritical CO2 extract of oleander which was equivalent to 25 nM of oleandrin for 24 hrs. Cell cycle analysis was carried out by flow cytometry. Cell division consists of two consecutive processes, mainly characterized by DNA replication and then segregation of replicated chromosomes into two separate cells. Replication of DNA occurs in a specific part of the interphase called S phase. S phase is preceded by a gap called G1 during which the cell is preparing for DNA synthesis. This is […] then followed by a gap called G2 during which the cell prepares for mitosis. Then this is followed with the mitosis phase, or M phase. G1, S, G2 and M phases are the traditional subdivisions of the standard cell cycle. Cells which are in a G2/M block such as that induced by the supercritical CO2 extract cannot undergo division.
The data are expressed as the relative percentage of cells in a given phase of the cell cycle.
On the technique in general: In flow cytometry, cells or beads pass a laser one at a time.

Experiment [2] deals with ERK (pERK) in Panc-1 cells. Kind of experiment: Expression of pERK, gel electropherogram (FIG. 3). Format: cell-based, human. An excerpt:
(§4) FIG. 3 depicts a photograph of the relevant bands of a gel electropherogram obtained as part of an assay comparing the activity of oleandrin, hot-water extract and the SCF extract of the invention toward inhibition of phosphoryation (active form) of Akt and augmentation of (phosphorylation) of Erk.
(§5) Phosphorylation of the serine/threonine kinase known as Akt provides tumor cells with enhanced survival capability. Increased Akt activity promotes survival of tumor cells that would normally undergo death by apoptosis. In addition, pAkt is involved in cell proliferation, angiogenesis, genome instability and cell invasion and migration (Yoeli-Lerner M and Toker A. Akt/PKB Signaling in Cancer. Cell Cycle 5:603-605, 2006). All of these responses contribute to initiation and progression. Further evidence of the importance of Akt signaling in cancer comes from studies which have detected over-expression and hyper-activation (through phosphorylation) of Akt in a wide range of human tumors, and this is often linked with poor prognosis. The relative activity of the hot-water and SCF extract on critical cell signaling proteins in human pancreatic cancer (Panc-1) cells were also compared. […] The relative ability of the supercritical CO2 extract to inhibit pAkt expression is much greater than that of oleandrin or the hot water extract of Nerium oleander. […]

Experiment [3] deals with Akt (pAkt) in Panc-1 cells. Briefly: Phosphorylation of Akt, gel electropherogram (FIG. 3). Format: cell-based, human.
Excerpt: as §4, §5

For orientation: IC50 means the concentration needed to halve the response being measured. For the compound `CO[C@H]1C[C@H](O[C@H]2CC[C@@]3(C)[C@H](CC[C@@H]4[C@@H]3CC[C@]3(C)[C@@H](C5=CC(=O)OC5)[C@@H](OC(C)=O)C[C@]43O)C2)O[C@@H](C)[C@@H]1O` [Oleandrin, oleandrin], in experiment [1], inhibition was half-maximal at 0.01 µM (IC50). This compound had a half-maximal inhibitory concentration (IC50) with Human melanoma BRO cells of 0.017 µM. Besides, in the experiment with PANC-1 cells, the “G1 phase, relative percentage of cells” value is given as 30.5%; the “G2/M phase, relative percentage of cells” value turned out to be 26.2%; the “S phase, relative percentage of cells” value turned out to be 43.3%. Further, the “expression of pERK” value in experiment [2] was “dramatically increased”. For the same compound, in experiment [3], the “inhibition of PI3 Kinase resulting in reduction of phosphorylation of Akt” value is listed as “reduction of phosphorylation of Akt”.
